# Counter-ions that a name gives are not always drawn.
# Biological target: T1, hPRDM9 (amino acids 195-385) (Homo sapiens, UniProt Q9NQV7)
# T1 construct: 1.25 nM hPRDM9 (amino acids 195-385)
# T1 sequence (Q9NQV7 195-385): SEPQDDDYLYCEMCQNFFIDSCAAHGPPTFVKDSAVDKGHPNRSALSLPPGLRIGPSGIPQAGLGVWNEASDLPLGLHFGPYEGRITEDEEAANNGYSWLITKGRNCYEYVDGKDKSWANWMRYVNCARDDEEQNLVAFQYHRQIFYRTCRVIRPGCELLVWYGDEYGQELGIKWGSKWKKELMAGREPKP
# Experiment: PRDM9 biochemical assay (radiometric, 3[H] methyl transfer from SAM to biotinylated histone H3 peptide)
# Conditions: 1 nM hPRDM9, 1 μM biotinylated H3(1-25)K4 peptide, 5 μM 3[H]-SAM, 55 μM un-labeled SAM, 25° C., 30 minutes
# Method in brief: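 Radiometric assay of ³H-methyl transfer to biotinylated H3(1-25)K4 peptide, with final concentrations 1 nM hPRDM9 (195-385), 1 μM peptide, 5 μM ³H-SAM and 55 μM unlabeled SAM. Run in pH 8.5 Tris buffer for 30 min at 25° C, quenched with guanidine-HCl and captured on streptavidin Flashplates. IC50 from four-parameter fit relative to 0.5% DMSO controls.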
row,IC50 [nM],Structure (SMILES)
1,103,"COc1cc(CN)cc(-c2noc(N3CCN(C)C4(CCN(c5ccnc(C)c5)CC4)C3)n2)c1 [Compound 243, (3-methoxy-5-(5-(1-methyl-9-(2-methylpyridin-4-yl)-1,4,9-triazaspiro[5.5]undecan-4-yl)-1,2,4-oxadiazol-3-yl)phenyl)methanamine]"
2,131,"COc1cc(CN(C)C)cc(-c2noc(N3CCN(C)C4(CCN(c5ccnc(C)c5)CC4)C3)n2)c1 [Compound 244, 1-(3-methoxy-5-(5-(1-methyl-9-(2-methylpyridin-4-yl)-1,4,9-triazaspiro[5.5]undecan-4-yl)-1,2,4-oxadiazol-3-yl)phenyl)-N,N-dimethylmethanamine]"
3,83,"CNCc1cc(OC)cc(-c2noc(N3CCN(C)C4(CCN(c5ccnc(C)c5)CC4)C3)n2)c1 [Compound 245, 1-(3-methoxy-5-(5-(1-methyl-9-(2-methylpyridin-4-yl)-1,4,9-triazaspiro[5.5]undecan-4-yl)-1,2,4-oxadiazol-3-yl)phenyl)-N-methylmethanamine, HCl]"
4,83,"COc1cc(C(N)=O)cc(-c2noc(N3CCN(C)C4(CCN(c5ccnc(C)c5)CC4)C3)n2)c1 [Compound 246, 3-methoxy-5-(5-(1-methyl-9-(2-methylpyridin-4-yl)-1,4,9-triazaspiro[5.5]undecan-4-yl)-1,2,4-oxadiazol-3-yl)benzamide]"

# The next lines start with the molecule.
row,Structure (SMILES),IC50 [nM]
1,"Cc1cc(N2CC3(CC(NC(=O)Nc4cc(Cl)cc(Cl)c4)C3)C2)ccn1 [Compound 239, 1-(3,5-dichlorophenyl)-3-(2-(2-methylpyridin-4-yl)-2-azaspiro[3.3]heptan-6-yl)urea]",≥ 50000
2,Cc1cc(N2CC3(CCCN(C(=O)Nc4cc(Cl)cc(Cl)c4)C3)C2)ccn1 [Compound 240],≥ 50000
3,"CCN1CCN(c2nc(-c3cc(OC)cc(OC)c3)no2)CC12CCN(c1ccnc(C)c1)CC2 [Compound 242, 3-(3,5-dimethoxyphenyl)-5-(1-ethyl-9-(2-methylpyridin-4-yl)-1,4,9-triazaspiro[5.5]undecan-4-yl)-1,2,4-oxadiazole]",155
4,"COc1cc(OC)cc(-c2noc(NCC3(O)CN(c4ccnc(C)c4)C3)n2)c1 [Compound 247, 3-(((3-(3,5-dimethoxyphenyl)-1,2,4-oxadiazol-5-yl)amino)methyl)-1-(2-methylpyridin-4-yl)azetidin-3-ol]",650

# Reference: patent US20190374526A1, “Substituted Heterocyclic Compounds as Inhibitors of PRDM9” (Merck Sharp & Dohme Corp., priority 2018, published 2019)
